# Measured values from patent US4731109A, “Herbicidal 2-haloacetanilides” (Monsanto Company, priority 1982, dated 1988).
# Where two headings read alike, the source gives them in different places.
# How the values were obtained:
# Type in all cases: in vivo
# Texas panicum = assay: Field preemergence activity in peanuts, surface applied; conditions: pre-emergence, read-out: Percent Inhibition; for inhibition at 2240 g/ha: 2.24 Kg/Ha; for inhibition at 3360 g/ha: 3.36 Kg/Ha; for inhibition at 4480 g/ha: 4.48 Kg/Ha
# From the text: (§1) It will be understood by those skilled in the art that not all of the named weeds are selectively controlled in all of the named crops under all conditions of climate, soil, moisture and/or herbicide application modes. Selectivity data for control of the foregoing weeds in the crops soybeans, corn, cotton and peanuts from a plurality of field tests in various locations under various conditions of soil, moisture, etc., is shown collectively in Tables VIII-XI, respectively.
# (§2) In Table XI is presented preemergence activity data for the compound of Example 1 against three resistant annual weeds, i.e., Texas panicum, bristly starbur and Florida pusley in peanuts for periods up to 12 WAT. The data in Table XI represent the average of three replicate runs in sandy loam soil having 1.3% organic matter, 79.2% sand and 10% clay; herbicide surface applied.
# Florida Pusley = assay: as above; conditions: for inhibition at 2240 g/ha: 2.24 Kg/Ha; for inhibition at 4480 g/ha: 4.48 Kg/Ha
# From the text: as §1, §2
# Bristly Starbur = assay: as above; conditions: for inhibition at 2240 g/ha / inhibition at 3360 g/ha / inhibition at 4480 g/ha: pre-emergence, read-out: Percent Inhibition; for inhibition at 2240 g/ha: 2.24 Kg/Ha; for inhibition at 3360 g/ha: 3.36 Kg/Ha; for inhibition at 4480 g/ha: 4.48 Kg/Ha
# From the text: as §1, §2
# peanuts = assay: as above; conditions: pre-emergence, read-out: Percent Inhibition; for inhibition at 2240 g/ha: 2.24 Kg/Ha; for inhibition at 3360 g/ha: 3.36 Kg/Ha; for inhibition at 4480 g/ha: 4.48 Kg/Ha
# From the text: as §1, §2
# [1] = system: annual grasses, annual broadleafs and perennials; assay: Other tests, preemergence selective control or suppression of weeds
# purple nutsedge = assay: Field tests, selectivity; conditions: in cotton
# From the text: (§3) In the discussion and tables of data below, reference is made to herbicide application rates symbolized as "GR15 " and "GR85 "; these rates are given in kilograms per hectare (kg/ha) which are convertible into pounds per acre (lbs/A) by dividing the kg/ha rate by 1.12.
# (§4) A further guide to the effectiveness of a chemical as a selective herbicide is the "selectivity factor" ("SF") for a herbicide in given crops and weeds. The selectivity factor is a measure of the relative degree of crop safety and weed injury and is expressed in terms of the GR15 /GR85 ratio, i.e., the GR15 rate for the crop divided by the GR85 rate for the weed, both rates in kg/ha (lb/A). In the tables below, selectivity factors are shown in parenthesis following the GR85 rate for each weed; the symbol "NS" indicates "non-selective". Marginal or undetermined selectivity is indicated by a dash (--).
# as §1
# Giant foxtail = assay: Field tests, selectivity
# From the text: as §3, §4, §1
# Morningglory = assay: Field tests, selectivity; conditions: in corn
# From the text: as §3, §4, §1
# [2] = system: crabgrass (smooth and hairy); assay: Field tests, selectivity; conditions: in cotton, 7 WAT
# From the text: as §3, §4, §1
# Pennsylvania smartweed = assay: Field tests, selectivity; conditions: in soybeans, P.P.I., 8 WAT
# From the text: as §3, §4, §1
# goosegrass = assay: Field tests, selectivity; conditions: in cotton, P.P.I., 7 WAT
# From the text: as §3, §4, §1
# Lambsquarters = assay: Field tests, selectivity; conditions: in soybeans, 6 WAT
# From the text: as §3, §4, §1
# Yellow foxtail = assay: Field tests, selectivity; conditions: in soybeans, 6 WAT
# From the text: as §3, §4, §1
# prickly sida = assay: Field tests, selectivity; conditions: in cotton
# From the text: as §3, §4, §1
# Cocklebur = assay: Field tests, selectivity; conditions: in corn
# From the text: as §3, §4, §1
# purslane = assay: Field tests, selectivity; conditions: in cotton, S.A., 9 WAT
# From the text: as §3, §4, §1
# corn = assay: Field tests, selectivity
# From the text: as §3, §4, §1
# [3] = pre-emergence, 4 WAT, read-out: Percent Inhibition
# [4] = pre-emergence, 8 WAT, read-out: Percent Inhibition
compound,measurement,setting,value
"CCOCN(C(=O)CCl)c1c(C)cccc1C(F)(F)F [Example 1, N-(ethoxymethyl)-2'-trifluoromethyl-6'-methyl-2-chloroacetanilide]",inhibition at 2240 g/ha,Texas panicum; 4 WAT,50%
same,inhibition at 2240 g/ha,Texas panicum; 8 WAT,67%
same,inhibition at 2240 g/ha,Texas panicum; 12 WAT,40%
same,inhibition at 3360 g/ha,Texas panicum; 4 WAT,68%
same,inhibition at 3360 g/ha,Texas panicum; 8 WAT,63%
same,inhibition at 3360 g/ha,Texas panicum; 12 WAT,55%
same,inhibition at 4480 g/ha,Texas panicum; 4 WAT,85%
same,inhibition at 4480 g/ha,Texas panicum; 8 WAT,88%
same,inhibition at 4480 g/ha,Texas panicum; 12 WAT,78%
same,control,"Florida Pusley; 4.48 kg/ha, 12 WAT",95%
same,inhibition at 2240 g/ha,Florida Pusley; [3],0%
same,inhibition at 2240 g/ha,Florida Pusley; [4],90%
same,inhibition at 3360 g/ha,"Florida Pusley; pre-emergence, 3.36 Kg/Ha, 4 WAT, read-out: Percent Inhibition",0%
same,inhibition at 4480 g/ha,Florida Pusley; [3],0%
same,inhibition at 4480 g/ha,Florida Pusley; [4],95%
same,inhibition at 4480 g/ha,"Florida Pusley; pre-emergence, 12 WAT, read-out: Percent Inhibition",95%
same,control,"Bristly Starbur; 4.48 kg/ha, 12 WAT",complete control
same,inhibition at 2240 g/ha,Bristly Starbur; 8 WAT,78%
same,inhibition at 2240 g/ha,Bristly Starbur; 12 WAT,40%
same,inhibition at 3360 g/ha,Bristly Starbur; 8 WAT,85%
same,inhibition at 3360 g/ha,Bristly Starbur; 12 WAT,60%
same,inhibition at 4480 g/ha,Bristly Starbur; 8 WAT,95%
same,inhibition at 4480 g/ha,Bristly Starbur; 12 WAT,100%
same,inhibition at 2240 g/ha,peanuts; 4 WAT,5%
same,inhibition at 2240 g/ha,peanuts; 8 WAT,0%
same,inhibition at 2240 g/ha,peanuts; 12 WAT,0%
same,inhibition at 3360 g/ha,peanuts; 4 WAT,10%
same,inhibition at 3360 g/ha,peanuts; 8 WAT,0%
same,inhibition at 3360 g/ha,peanuts; 12 WAT,0%
same,inhibition at 4480 g/ha,peanuts; 4 WAT,17%
same,inhibition at 4480 g/ha,peanuts; 8 WAT,7%
same,inhibition at 4480 g/ha,peanuts; 12 WAT,0%
same,preemergence selective control or suppression of weeds,"[1]; in soybeans, corn, cotton, peanuts, beans, potatoes, tree fruits, turf grasses",effectiveness for premergence selective control or suppression
same,"competition from seedling johnsongrass, Texas panicum, sandbur, shattercane, Florida beggarweed, lambsquarters, ragweed, prickley sida and smartweed",[1]; in vivo,reduces competition
same,GR85,"purple nutsedge; P.P.I., 6 WAT",4.2 kg/ha
same,GR85,"purple nutsedge; S.A., 6 WAT",1.7 kg/ha
same,S.F. (GR15/GR85),"purple nutsedge; S.A., 6 WAT",2
same,GR85,"purple nutsedge; S.A., 9 WAT",2.2 kg/ha
same,S.F. (GR15/GR85),"purple nutsedge; S.A., 9 WAT",1.5
same,GR85,"Giant foxtail; in corn, P.P.I., 6 WAT",2.0 kg/ha
same,S.F. (GR15/GR85),"Giant foxtail; in corn, P.P.I., 6 WAT",2.5
same,GR85,"Giant foxtail; in corn, P.P.I., 6.5 WAT",4.5 kg/ha
same,S.F. (GR15/GR85),"Giant foxtail; in corn, P.P.I., 6.5 WAT",1.5
same,GR85,"Giant foxtail; in corn, S.A., 6 WAT",< 1.1 kg/ha
same,S.F. (GR15/GR85),"Giant foxtail; in corn, S.A., 6 WAT",4
same,GR85,"Giant foxtail; in corn, S.A., 6.5 WAT",8.4 kg/ha
same,GR85,"Giant foxtail; in soybeans, P.P.I., 3 WAT",< 1.1 kg/ha
same,S.F. (GR15/GR85),"Giant foxtail; in soybeans, P.P.I., 3 WAT",> 4
same,GR85,"Giant foxtail; in soybeans, P.P.I., 5 WAT",< 1.1 kg/ha
same,S.F. (GR15/GR85),"Giant foxtail; in soybeans, P.P.I., 5 WAT",> 4
same,GR85,"Giant foxtail; in soybeans, S.A., 3 WAT",< 1.1 kg/ha
same,S.F. (GR15/GR85),"Giant foxtail; in soybeans, S.A., 3 WAT",> 4
same,GR85,"Morningglory; P.P.I., 3 WAT",> 4.5 kg/ha
same,GR85,"Morningglory; P.P.I., 6 WAT",> 4.5 kg/ha
same,GR85,"Morningglory; S.A., 3 WAT",> 4.5 kg/ha
same,GR85,"Morningglory; S.A., 6 WAT",> 4.5 kg/ha
same,suppression,Morningglory; Table IX,suppression of these weeds was exhibited
same,GR85,[2]; P.P.I.,1.1 kg/ha
same,GR85,[2]; S.A.,< 1.1 kg/ha
same,S.F. (GR15/GR85),[2]; S.A.,> 1
same,GR85,Pennsylvania smartweed,2.5 kg/ha
same,S.F. (GR15/GR85),Pennsylvania smartweed,2
same,GR85,goosegrass,< 1.1 kg/ha
same,control,goosegrass,marginal or indeterminate
same,GR85,Lambsquarters; P.P.I.,2.8 kg/ha
same,GR85,Lambsquarters; S.A.,2.5 kg/ha
same,S.F. (GR15/GR85),Lambsquarters; S.A.,1
same,GR85,Yellow foxtail; P.P.I.,< 1.12 kg/ha
same,S.F. (GR15/GR85),Yellow foxtail; P.P.I.,> 1
same,GR85,Yellow foxtail; S.A.,1.1 kg/ha
same,S.F. (GR15/GR85),Yellow foxtail; S.A.,2
same,GR85,"prickly sida; P.P.I., 6 WAT",4.8 kg/ha
same,GR85,"prickly sida; S.A., 6 WAT",3.1 kg/ha
same,S.F. (GR15/GR85),"prickly sida; S.A., 6 WAT",1
same,GR85,"prickly sida; S.A., 9 WAT",4.8 kg/ha
same,GR85,"Cocklebur; P.P.I., 3 WAT",> 4.5 kg/ha
same,GR85,"Cocklebur; P.P.I., 6 WAT",> 4.5 kg/ha
same,GR85,"Cocklebur; S.A., 3 WAT",> 4.5 kg/ha
same,GR85,"Cocklebur; S.A., 6 WAT",> 4.5 kg/ha
same,suppression,Cocklebur; Table IX,suppression of these weeds was exhibited
same,GR85,purslane,2.0 kg/ha
same,S.F. (GR15/GR85),purslane,1.5
same,GR15,"corn; Corn/Cocklebur, P.P.I., 3 WAT",4.8 kg/ha
same,GR15,"corn; Corn/Cocklebur, P.P.I., 6 WAT",4.8 kg/ha
same,GR15,"corn; Corn/Cocklebur, S.A., 3 WAT",> 4.5 kg/ha
same,GR15,"corn; Corn/Cocklebur, S.A., 6 WAT",> 4.5 kg/ha
same,GR15,"corn; Corn/Giant foxtail, P.P.I., 6 WAT",4.8 kg/ha
same,GR15,"corn; Corn/Giant foxtail, P.P.I., 6.5 WAT",> 6.7 kg/ha
same,GR15,"corn; Corn/Giant foxtail, S.A., 6 WAT",4.5 kg/ha
same,GR15,"corn; Corn/Giant foxtail, S.A., 6.5 WAT",> 7.8 kg/ha
same,GR15,"corn; Corn/Morningglory, P.P.I., 3 WAT",4.8 kg/ha
same,GR15,"corn; Corn/Morningglory, P.P.I., 6 WAT",4.8 kg/ha
same,GR15,"corn; Corn/Morningglory, S.A., 3 WAT",> 4.5 kg/ha
same,GR15,"corn; Corn/Morningglory, S.A., 6 WAT",> 4.5 kg/ha
